The record followed here is US10294202B2, “Pyrrolidinones as herbicides” (FMC Corporation, priority 2013, dated 2019).

Common to all, as to experiment: Test H preemergence mixture test (Colby)
What all share (conditions): Mesotrione alone 16 g a.i./ha, 21 d after treatment, scale 0 to 100

The test system of one experiment is giant foxtail (SETFA). In kind it is in vivo, Setaria faberii. The source says: (§1) Colby's Equation was used to determine the herbicidal effects expected from the mixtures. Colby's Equation (Colby, S. R. “Calculating Synergistic and Antagonistic Responses of Herbicide Combinations,” Weeds, 15(1), pp 20-22 (1967)) calculates the expected additive effect of herbicidal mixtures and for two active ingredients is of the form: Pa+b=Pa+Pb−(PaPb/100)
(§2) where • Pa+b is the percentage effect of the mixture expected from additive contribution of the individual components: • Pa is the observed percentage effect of the first active ingredient at the same use rate as in the mixture, and • Pb is the observed percentage effect of the second active ingredient at the same use rate as in the mixture. In the following Tables, rates are shown in grams of active ingredient per hectare (g a.i./ha); “Obsd.” is the observed effect. “Exp.” is the expected effect calculated from Colby's Equation.
(§3) This test evaluated the effect of mixtures of compound 80 with several commercial herbicides on four plant species. Seeds of plant species selected from corn (ZEAMD, Zea mays), soybean (GLXMA, Glycine max), waterhemp (common waterhemp, AMATA, Amaranthus rudis), and giant foxtail (SETFA, Setaria faberii) were planted into a silt loam soil and treated preemergence with test chemicals formulated in a non-phytotoxic solvent mixture which included a surfactant and applied using a volume of 281 L/ha. Each treatment was replicated three times. Treated plants and controls were maintained in a greenhouse using supplemental lighting to maintain a photoperiod of about 16 h; daytime and nighttime temperatures were about 24-30° C. and 19-21° C., respectively. Nutrients were applied using a balanced fertilizer applied through the watering system. At 21 d after treatment, all species were compared to controls and visually evaluated. Plant response ratings were calculated as the means of the three replicates, are summarized in Tables H1 through H5, and are based on a scale of 0 to 100 where 0 is no effect and 100 is complete control. A dash (-) response means no test result. The Expected (Exp.) results were calculated using Colby's Equation as described for Test G above.

A further experiment deals with soybean (GLXMA). It is filed as in vivo, Glycine max.
Description: as §1, §2, §3

For another experiment, the system named is waterhemp (AMATA). It is filed as in vivo, Amaranthus rudis.
Description: as §1, §2, §3

For another experiment, the system named is corn (ZEAMD). It is filed as in vivo, Zea mays.
Description: as §1, §2, §3

Regarding `CS(=O)(=O)c1ccc(C(=O)C2C(=O)CCCC2=O)c([N+](=O)[O-])c1` [Mesotrione, reference compound], the “Plant response rating, Obsd., SETFA” value with giant foxtail (SETFA) was determined as 0. In addition, the “Plant response rating, Obsd., GLXMA” value in the experiment on soybean (GLXMA) is reported as 25. For the same molecule, the “Plant response rating, Obsd., AMATA” value with waterhemp (AMATA) turned out to be 96. Moreover, the “Plant response rating, Obsd., ZEAMD” value in the experiment on corn (ZEAMD) is reported as 12.
